For series [1], the system named is CHO-K1 cells. As to the kind of experiment: MTT cell viability assay on CHO-K1 cells. Type of series: cell-based, Chinese hamster. The settings on record: 24 h exposure. As for the experimental part: Standard MTT assay (3-(4,5-dimethylthiazol-2-yl)-2,5-diphenyltetrazolium bromide; Sigma-Aldrich, Prague, Czechia) was used according to the manufacturer’s protocol on the CHO-K1 (Chinese hamster ovary, ECACC, Salisbury, United Kingdom) in order to compare the effect of different compounds within the series. The cells were cultured according to ECACC recommended conditions and seeded in a density of 8000 per well as described previously ([Soukup et al., 2020]). […] Thereafter, CHO-K1 cells were exposed to two-fold diluted series A, B, C or ten-fold diluted sodium hypochlorite for 24 h. Then the medium was replaced by a medium containing 0.5 mg/ml of MTT and the cells were allowed to produce formazan for approximately 3 h under surveillance. Thereafter, the medium with MTT was removed and crystals of formazan were dissolved in DMSO (100 μl/well). Cell viability was assessed spectrophotometrically by the amount of formazan produced. The absorbance was measured at 570 nm on Synergy HT (BioTek, Winooski, VT, United States). IC50 (half maximal inhibitory concentration) was then calculated from the control – subtracted triplicates using non-linear regression (four parameters) by GraphPad Prism 5.03 or 7.03 software (GraphPad Software Inc., San Diego, CA, United States). Final IC50 and SEM (standard error of the mean) values were obtained as a mean of three independent measurements.

In series [2] the test system is E. faecalis biofilms on titanium surface. As to the kind of experiment: Biofilm susceptibility assay, live/dead staining CLSM. Type of series: cell-based, Enterococcus faecalis. Conditions: for biofilm surface coverage change during the treatment: 1, 3 and 60 min of treatment; for proportion of live cells in biofilm: after 60 min of treatment. As for the experimental part:
To grow the biofilms, an overnight culture of E. faecalis (average viable bacterial concentration of 1 × 10^8 CFU/ml) was diluted 100-fold in BHI. E. faecalis biofilms were formed on titanium radial disks (commercially pure titanium, grade 2) with 7 mm diameter and 1 mm thickness. Prior to the experiments all disks were sandblasted (FerroEcoBlast Europe; Microblast ceramic beads B120) to expose fresh titanium surface, cleaned in 70% ethanol and autoclaved at 134°C for 20 min. The biofilms were grown for 3 days at 37°C ± 1°C without shaking or changing of media to achieve a surface coverage of approximately 25% and a surface bacterial density of ∼1.5 × 10^11 bacteria […]. Biofilms grown on a titanium surface were exposed to 1.5 ml of A14, B14, and C14 dissolved in BHI for 1, 3, and 60 min. After treatment the individual disks were rinsed with saline solution to remove QACs as well as unattached bacteria. In laser treated biofilms samples were treated with QACs for 1 min followed by 10 s of Er:YAG – SSP laser treatment. The LightWalker Er:YAG (Fotona, Ljubljana, Slovenia) was set with the following parameters: laser wavelength 2940 nm; contact handpiece H14, Flat Sweeps fiber tip 400/14 positioned 5 mm above the biofilm disk, energy 20 mJ, frequency 15 Hz, water off, air off, single pulse modality – SSP (super short pulse – 50 μs). The titanium disks with their biofilm were positioned at the bottom of cylindrical irrigation system (7.5 mm diameter and 2 cm high) in the presence of 1.5 ml of either saline or the QAC dissolved in BHI. The antibacterial concentration was 250 μM which was the highest soluble QAC concentration in BHI broth. The rinsed biofilms were stained with 5 μL of premixed saline-diluted Syto 9 and propidium iodide stock solutions (1: 300) from LIVE/DEAD^TM BacLight^TM Bacterial Viability Kit L7012 (Thermo Fisher Scientific, Eugene, OR, United States). After 5 min of incubation in the dark the samples were observed by fluorescence microscope Zeiss Axio Observer Z1 equipped with confocal unit LSM 800 (CLSM). Z-stacks and tiles were taken at 100× or 20× magnification at three randomly selected view fields. Image acquisition and control of the microscope were performed with ZEN 2.3 (ZEISS GmbH, Germany). For the 100× magnification, blue 488 nm and yellow 561 nm lasers were set to 1% intensity, GaAsP PMT detectors to 700 V, pinhole to 71 μm, and the size of the acquired 8-bit images was 3476 × 3476 pixels. For the 20× magnification, blue 488 nm and yellow 561 nm lasers were set to 0.85% intensity, GaAsP PMT detectors to 700 V, pinhole to 50 μm and the size of acquired 8-bit images was 1306 × 1306 pixels. The typical Z-step of the Z-stack was 1 μm for 100× magnification and 3.26 μm for 20× magnification. The images were composed of four different view fields. A custom script was written (Image J) and used to evaluate the effect of treatment on the fraction of dead cells and biofilm surface coverage.

The subject of series [3] is E. faecalis plankton and biofilm. As to the kind of experiment: Comparison of effectiveness in plankton and biofilm (matched fraction of dead cells). Type of series: cell-based, Enterococcus faecalis. Conditions: for dilution in plankton needed to match the fraction of dead cells in the biofilm: high density E. faecalis suspension 2.4 × 10^9 CFU/mL. From the text:
In plankton suspensions we were able to reach bactericidal concentration for all tested QACs. The situation was quite different in biofilms. The concentrations that work in plankton were not sufficient to kill all bacteria in the biofilm. […] Unfortunately, due to the solubility limit, it was not possible to increase the concentration of the QACs to concentrations that would kill all bacteria in the biofilm. Nevertheless, we can compare the effectiveness in plankton and biofilm if we decrease the concentration of biocide in the plankton to match the fraction of the dead cells in the biofilm. […] The experiment was performed at high density E. faecalis suspensions (2.4 × 10^9 CFU/mL) to mimic the high density of bacteria in a biofilm. By comparing QACs effectiveness at high initial planktonic densities we have largely eliminated the effect of the bacterial density and estimated the effect of biofilm induced changes on QACs sensitivity. One has to be careful, however, as bacterial cells in plankton differ from biofilm not only in cell density but also in cell metabolism and extracellular matrix viscoelasticity. To match the fraction of dead cells in the biofilm, the 10-fold dilution of compounds A14 and B14 were needed, whereas only 4-fold dilution of compound C14 was required. […] The activity of QACs in biofilms relative to plankton was two orders of magnitude […] than usually reported in the literature. Although our biofilms were mature, they were relatively thin (up to 10 μm) which may explain the relatively high efficiency of the QACs against biofilms. Similar observations have been made for S. mutans biofilms, where biofilm cells were only 8 times less susceptible to QACs compared to plankton bacteria ([López Pérez et al., 2017]).

Series [4] has as its system osteosarcoma cybrid cells. Details: method as in Datta et al., 2017. The settings on record: cytotoxicity, ref Datta et al., 2017; cited from earlier work.
For series [5], the system named is Human alveolar cells. Details: method as in Kwon et al., 2019. The settings on record: cytotoxicity, ref Kwon et al., 2019; cited from earlier work.
Series [6] has as its system human hepatoma cell line. On the set-up: method as in Christen et al., 2017. The settings on record: cytotoxicity, ref Christen et al., 2017; cited from earlier work.

In the case of `CCCCCCCCCCCC[n+]1ccccc1` [Compound A12, 1-dodecylpyridinium], in series [1] (Cricetulus griseus), the concentration for half-maximal inhibition (IC50) turned out to be 38.8 ± 0.9 µM.
Molecule `CCCCCCCCCCCC[n+]1cccc(Cl)c1.[Br-]` [Compound B12, 1-dodecyl-3-chloropyridinium bromide] showed a melting point of 68.5 to 69.2 °C. Further, the 50% inhibitory concentration (IC50) in series [1] (Cricetulus griseus) was 25.5 ± 2.5 µM.
For `CCCCCCCCCCCCCC[n+]1cccc(Cl)c1.[Br-]` [Compound B14, 1-tetradecyl-3-chloropyridinium bromide], in series [2] (250 μM), the “biofilm surface coverage change during the treatment” value was “did not change significantly” and the “proportion of live cells in biofilm” value worked out at 14%. Moreover, in series [3], the “dilution in plankton needed to match the fraction of dead cells in the biofilm” value is given as 10 fold. In series [1] (Cricetulus griseus), the IC50 is 17.2 ± 1.3 µM.
`CCCCCCCCCCCCCCCC[n+]1cccc(Cl)c1.[Br-]` [Compound B16, 1-hexadecyl-3-chloropyridinium bromide] displayed a melting point of 91.4 to 92.2 °C. Moreover, the IC50 in series [1] (Cricetulus griseus) was found to be 12.5 ± 1.1 µM.
Take `CCCCCCCCCCCC[n+]1ccn(CCO)c1` [Compound C12]: the IC50 in series [1] (Cricetulus griseus) amounted to 1.43 ± 3 µM.
In the case of `CCCCCCCCCCCCCC[n+]1ccn(CCO)c1.[Br-]` [Compound C14, 3-tetradecyl-1-(2-hydroxyethyl)imidazolium bromide], in series [2] (250 μM), the “biofilm surface coverage change during the treatment” value was “did not change significantly” and the “proportion of live cells in biofilm” value was 3%. Also, the “fraction of dead cells in biofilm” value in series [2] (after 1 min of treatment, 250 μM) is “majority of cells in the biofilm were dead”. Further, in series [2] (after 3 min of treatment, 250 μM), the “fraction of dead bacteria in biofilm” value was determined as 86 ± 4%. Also, in series [3], the “resistance of biofilm bacteria compared to planktonic bacteria” value is 4 fold and the “dilution in plankton needed to match the fraction of dead cells in the biofilm” value is 4 fold. The IC50 in series [1] (Cricetulus griseus) came to 1.19 ± 0.9 µM.
In turn, `CCCCCCCCCCCCCCCC[n+]1ccn(CCO)c1` [Compound C16] came in with a melting point of 49.2 to 50.1 °C. For the same molecule, the concentration for half-maximal inhibition (IC50) in series [1] (Cricetulus griseus) was determined as 1.03 ± 1 µM.
On to `[Na+].[O-]Cl` [Sodium hypochlorite, reference compound], for which the biofilm coverage entry in series [2] (after 1 min of exposure, 3% V/V, positive control) was “below 1%”. The IC50 in series [1] was 6.45 ± 1.1 µM.
For the molecule benzalkonium chloride, the IC50 in series [4] is around 22.8 µM; in series [5] it was around 14.8 µM. Also, the EC50 in series [6] is around 12.4 µM.

The values above are taken from paper PMC7606276, “The Antibacterial Effects of New N-Alkylpyridinium Salts on Planktonic and Biofilm Bacteria” (Frontiers in Microbiology, 2020).
